Source: patent publication US20190297887A1, “BICYCLIC COMPOUNDS AS PESTICIDES” (Bayer CropScience Aktiengesellschaft, priority 2016, published 2019)
Like-named read-outs stand apart in the source and are kept apart here.

Experiments:
[1] = system: southern root-knot nematode (Meloidogyne incognita); test: Meloidogyne incognita test; type: in vivo; details: application rate 20 ppm; after 14 days; lettuce in sand; 100% = no galls
Description: Meloidogyne incognita Test Solvent: 125.0 parts by weight of acetone To produce a suitable active ingredient formulation, 1 part by weight of active ingredient is mixed with the stated amount of solvent and the concentrate is diluted to the desired concentration with water. Vessels are filled with sand, active ingredient solution, an egg/larvae suspension of the southern root-knot nematode (Meloidogyne incognita) and lettuce seeds. The lettuce seeds germinate and the plants develop. The galls develop on the roots. After 14 days, the nematicidal efficacy in % is determined by the formation of galls. 100% means that no galls were found; 0% means that the number of galls on the treated plants corresponds to the untreated control.

[2] = log P determination by HPLC on reversed-phase columns (OECD Guideline 117); type: physicochemical; details: reversed-phase (C18) HPLC column
Description: The log P values were determined in accordance with OECD Guideline 117 (EC Directive 92/69/EEC) by HPLC (high-performance liquid chromatography) using reversed-phase (RP) columns (C18), by the following methods: [a] The LC-MS determination in the acidic range is carried out at pH 2.7 with 0.1% aqueous formic acid and acetonitrile (contains 0.1% formic acid) as eluents; linear gradient from 10% acetonitrile to 95% acetonitrile. [b] LC-MS determination in the neutral range is carried out at pH 7.8 with 0.001 molar aqueous ammonium hydrogencarbonate solution and acetonitrile as eluents; linear gradient from 10% acetonitrile to 95% acetonitrile. Calibration is effected using unbranched alkan-2-ones (having 3 to 16 carbon atoms) with known log P values (log P values determined on the basis of the retention times by linear interpolation between two successive alkanones).

[3] = system: green peach aphids (Myzus persicae); test: Myzus persicae - oral test; type: in vivo; details: 120 h, application rate 4 ppm, after 5 days, oral uptake from microtitre plate, read-out: efficacy in % (aphids killed)
Description: Myzus persicae—Oral Test Solvent: 100 parts by weight of acetone To produce a suitable active ingredient formulation, 1 part by weight of active ingredient is dissolved with the stated parts by weight of solvent and made up to the desired concentration with water. 50 μl of the active ingredient formulation are transferred into microtitre plates and made up to a final volume of 200 μl with 150 μl of IPL41 insect medium (33%+15% sugar). Subsequently, the plates are sealed with parafilm, which a mixed population of green peach aphids (Myzus persicae) within a second microtitre plate is able to puncture and imbibe the solution. After 5 days, the efficacy in % is determined. 100% means that all the aphids have been killed; 0% means that no aphids have been killed.

[4] = system: green peach aphid (Myzus persicae); test: Myzus persicae - spray test; type: in vivo; details: foliar, application rate 500 g/ha, after 5-6 days, sprayed Chinese cabbage leaf discs, read-out: efficacy in % (aphids killed)
Description: Myzus persicae—Spray Test Solvent: 78 parts by weight of acetone • • 1.5 parts by weight of dimethylformamide Emulsifier: alkylaryl polyglycol ether To produce a suitable active ingredient formulation, 1 part by weight of active ingredient is dissolved with the specified parts by weight of solvent and made up to the desired concentration with water containing an emulsifier concentration of 1000 ppm. To produce further test concentrations, the formulation is diluted with emulsifier-containing water. Discs of Chinese cabbage leaves (Brassica pekinensis) infested by all stages of the green peach aphid (Myzus persicae) are sprayed with an active ingredient formulation of the desired concentration. After 5-6 days, the efficacy in % is determined. 100% means that all the aphids have been killed; 0% means that no aphids have been killed.

[5] = system: larvae of the mustard beetle (Phaedon cochleariae); test: Phaedon cochleariae - spray test; type: in vivo; details: application rate 500 g/ha; after 7 days; sprayed Chinese cabbage leaf discs
Description: Phaedon cochleariae—Spray Test
Solvent: 78.0 parts by weight of acetone • • 1.5 parts by weight of dimethylformamide
Emulsifier: alkylaryl polyglycol ether
To produce a suitable active ingredient formulation, 1 part by weight of active ingredient is dissolved with the specified parts by weight of solvent and made up to the desired concentration with water containing an emulsifier concentration of 1000 ppm. To produce further test concentrations, the formulation is diluted with emulsifier-containing water.
Discs of Chinese cabbage leaves (Brassica pekinensis) are sprayed with an active compound formulation of the desired concentration and, after drying, populated with larvae of the mustard beetle (Phaedon cochleariae).
After 7 days, the efficacy in % is determined. 100% means that all the beetle larvae have been killed; 0% means that no beetle larvae have been killed.

[6] = acidic range, pH 2.7, 0.1% aqueous formic acid/acetonitrile, read-out: log P(HCOOH)
[7] = neutral range, pH 7.8, 0.001 molar aqueous ammonium hydrogencarbonate/acetonitrile, read-out: log P(neutral)

Row | SMILES | pest or weed control at 4 ppm [3] [%] | pest or weed control at 500 g/ha [4] [%] | further results
1 | Cn1c(=O)n(C)n(-c2ccc3nn(-c4cccnc4)cc3c2)c1=O [Example 1, 1,4-Dimethyl-2-[2-(pyridin-3-yl)-2H-indazol-5-yl]-1,2,4-triazolidine-3,5-dione] | 100 | 90 | nematicidal efficacy in % (formation of galls) [1]: 90%; chromatographic logP [2, 6]: 1.24; chromatographic logP [2, 7]: 1.31
2 | Cn1c(=O)cnn(-c2ccc3nn(-c4cccnc4)cc3c2)c1=O [Example 2, 4-Methyl-2-[2-(pyridin-3-yl)-2H-indazol-5-yl]-1,2,4-triazine-3,5(2H,4H)-dione] | 100 | 90 | chromatographic logP [2, 6]: 1.38; chromatographic logP [2, 7]: 1.47
3 | Cn1c(=O)n(C2CC2)c(=O)n1-c1ccc2nn(-c3cccnc3)cc2c1 [Example 3] | 100 | 100 | –
4 | Cn1c(=O)n(-c2ccccc2)c(=O)n1-c1ccc2nn(-c3cccnc3)cc2c1 [Example 4] | 100 | 90 | efficacy in % (beetle larvae killed) [5]: 83%
5 | CCn1c(=O)n(C)n(-c2ccc3nn(-c4cccnc4)cc3c2)c1=O [Example 5] | 100 | 90 | –
6 | CSCCn1c(=O)n(C)n(-c2ccc3nn(-c4cccnc4)cc3c2)c1=O [Example 6] | 90 | 100 | –
7 | Cn1c(=O)n(CC2CC2)c(=O)n1-c1ccc2nn(-c3cccnc3)cc2c1 [Example 7] | 100 | 90 | –
8 | Cn1c(=O)n(Cc2ccccc2)c(=O)n1-c1ccc2nn(-c3cccnc3)cc2c1 [Example 8] | 100 | 100 | –
9 | Cn1c(=O)n(CC(F)(F)F)c(=O)n1-c1ccc2nn(-c3cccnc3)cc2c1 [Example 9] | 100 | 90 | –
10 | Cn1c(=O)n(CC(F)(F)F)n(-c2ccc3nn(-c4cccnc4)cc3c2)c1=O [Example 10] | 100 | – | –
11 | Cn1c(=O)n(CC[S+](C)[O-])c(=O)n1-c1ccc2nn(-c3cccnc3)cc2c1 (stereo not shown) [Example 11] | 100 | 90 | –
12 | COCCn1c(=O)n(C)n(-c2ccc3nn(-c4cccnc4)cc3c2)c1=O [Example 12] | 100 | 90 | –
13 | CC(C)n1c(=O)n(C)n(-c2ccc3nn(-c4cccnc4)cc3c2)c1=O [Example 13] | 90 | – | –
14 | Cn1c(=O)n(CC(F)F)c(=O)n1-c1ccc2nn(-c3cccnc3)cc2c1 [Example 14] | 100 | 90 | –
15 | Cn1c(=O)n(Cc2ccc(Cl)cc2)c(=O)n1-c1ccc2nn(-c3cccnc3)cc2c1 [Example 15] | 100 | – | –
16 | Cn1c(=O)n(Cc2ccccc2Cl)c(=O)n1-c1ccc2nn(-c3cccnc3)cc2c1 [Example 16] | 90 | – | –
17 | Cn1c(=O)n(Cc2cccc(Cl)c2)c(=O)n1-c1ccc2nn(-c3cccnc3)cc2c1 [Example 17] | 100 | – | –
18 | CCn1c(=O)n(C)n(-c2cnc3nn(-c4cccnc4)cc3c2)c1=O [Example 18] | 100 | 100 | –
19 | Cn1c(=O)n(C)n(-c2cnc3nn(-c4cccnc4)cc3c2)c1=O [Example 19] | 90 | 100 | –
20 | Cn1c(=O)n(C2CC2)c(=O)n1-c1cnc2nn(-c3cccnc3)cc2c1 [Example 20] | 100 | 90 | –
21 | Cn1c(=O)n(CC2CC2)c(=O)n1-c1cnc2nn(-c3cccnc3)cc2c1 [Example 21] | 100 | 100 | –
22 | CC(C)n1c(=O)n(C)n(-c2cnc3nn(-c4cccnc4)cc3c2)c1=O [Example 22] | 100 | – | –
23 | Cn1c(=O)n(Cc2ccc(Cl)nc2)c(=O)n1-c1ccc2nn(-c3cccnc3)cc2c1 [Example 23] | 100 | 100 | –
24 | O=c1cnn(-c2ccc3nn(-c4cccnc4)cc3c2)c(=O)n1CC(F)(F)F [Example 24] | 100 | – | –
25 | CCn1c(=O)cnn(-c2ccc3nn(-c4cccnc4)cc3c2)c1=O [Example 25] | 100 | 100 | efficacy in % (beetle larvae killed) [5]: 83%
26 | O=c1cnn(-c2ccc3nn(-c4cccnc4)cc3c2)c(=O)n1CC1CC1 [Example 26] | 100 | 90 | –
27 | O=c1cnn(-c2ccc3nn(-c4cccnc4)cc3c2)c(=O)n1Cc1ccccc1 [Example 27] | 100 | 90 | –
28 | O=c1cnn(-c2ccc3nn(-c4cccnc4)cc3c2)c(=O)n1-c1ccccc1 [Example 28] | 90 | – | –
